According to patent publication US20250270159A1, “1-(CYCLOBUTANEMETHYLIDENE)-2, 4, 5-TRIMETHOXYBENZENE COMPOUND AND PREPARATION METHOD AND USE THEREOF” (CHENGDU XINRUI TAIKANG TECHNOLOGY CO., LTD., priority 2023, published 2025):
Marks after values point to notes of the source that are not given here.

Tests used:
[1] = system: mouse model of pentylenetetrazole-induced epilepsy; experiment: Mouse model of pentylenetetrazole-induced epilepsy (Racine score, seizure rate, latency); type: in vivo, Kunming (KM) mice; conditions: for Incubation period (s), Clonic seizure / Incubation period (s), Tonic seizure: no seizure within 30 min recorded as 1800 s; for Seizure grade: pentylenetetrazole 75 mg/kg ip, Racine score within 30 min; for seizure rate, Clonic seizure / seizure rate, Tonic seizure: within 30 min
Experimental: Validation of the protective effect of CTMB in a mouse model of pentylenetetrazole-induced epilepsy. • (1) Experimental animals: specific pathogen free (SPF) adult male Kunming (KM) mice with a weight of 30-35 g. • (2) Animal grouping: the test mice were randomly divided into […], namely, saline group, low-dose CTMB group (a dose of 50 mg/kg, CTMB-L), middle-dose CTMB group (a dose of 75 mg/kg, CTMB-M), high-dose CTMB group (a dose of 100 mg/kg, CTMB-H), 10 mice in each group, and each group was administered by intraperitoneal injection. • (3) Evaluation methods and results:
After a period of drug administration, mice in each group were injected intraperitoneally with pentylenetetrazole of the epilepsy modeling drug with a dose of 75 mg/kg, and clonic seizures and tonic seizures were used as evaluation indexes. Racine scores as well as the seizure rate and latency period of clonic seizures (Racine scores of 1-3) and tonic seizures (Racine scores of 4-5) were observed and recorded for each group of mice within 30 min. Grading scale of Racine scores are as follows. Grade 0 represents normal nonepileptic activity; grade 1 represents wet-dog-like shaking or scratching; grade 2 represents head nodding or tail wagging; grade 3 represents stretching of one forelimb or clonus of one limb; grade 4 represents multiple limb clonus or tonicity; grade 5 represents falls and generalized tonic clonic seizures. If no seizure occurs in the mouse within 30 min, the latency period was recorded as 1800 s.

[2] = system: GLT-1; experiment: GLT-1 content in brain of TBI rats; type: in vivo, SD rats; conditions: 30 mg/kg ip, 7 d continuous administration, FIG. 4
Experimental: The experimental grouping and drug administration plan were as follows. • Sham operation group (Group P): saline was given with the same volume as in the CTMB group; • Model group (T group): a blank emulsion was given with the same volume as in the CTMB group; • Medium dose group (Group M): a dose of 30 mg/kg of CTMB emulsion injection was given.
The experimental grouping and drug administration plan were the same as the test 3. After 7 d of continuous administration to each group, the rats were deeply anesthetized, the heads were severed and the brains were removed, about 60-120 mg of hemispheric cortex on the blood side was taken out, 10 times volume of ice-cold centrifugation buffer used for biochemical assay was added, homogenized for 10 min under an ice bath, and then centrifuged for 30 min at 4° C. and 14000 rpm/min. The supernatants were taken to test the GLT-1 and GABA content according to the instructions of GLT-1 and GABA content assay kit, respectively. Glutamate transporter 1 (GLT-1) is an important glutamate transporter in the brain that transports extracellular glutamate to the intracellular compartment. γ-aminobutyric acid (GABA) is an important inhibitory neurotransmitter, and a dramatic increase in the concentration of extracellular glutamate in pathological conditions leads to neuronal hyperexcitability toxicity.

[3] = system: neurons of substantia nigra region and striatum of PD mice; experiment: HE staining of substantia nigra and striatum of PD mice; type: in vivo, C57 mice; conditions: Group D, CTMB 20 mg/kg ip, 4 weeks; compared with model group; FIG. 5-7
Experimental: (§1) The mice were randomly divided into a sham operation group (group S, given a blank emulsion with a volume equal to that of the administered group), a model group (group M, given a blank emulsion with a volume equal to that of the administered group), a CTMB group (20 mg/kg, group D), and a levodopa group (levodopa: benserazide hydrochloride=4:1, 12 mg/kg, group L), each group included 10-12 mice, and all of them were administered intraperitoneally.
After completing the evaluation of motor function after 4 weeks of drug administration, the mice were deeply anesthetized, perfused with 20 mL of saline and 20 mL of 4% paraformaldehyde via the heart, and the brains were rapidly severed and extracted from the head, which were then preserved and fixed in 4% paraformaldehyde for 72 h after removal, and then embedded with paraffin to prepare the slices with a thickness of 4 μm for subsequent pathological and histological studies.
Hematoxylin-eosin (HE) staining may be used to observe changes in the pathological condition of brain tissue. […]

[4] = system: Malondialdehyde (MDA); experiment: MDA content in striatum of PD mice; type: in vivo, C57 mice; conditions: Group D, CTMB 20 mg/kg ip, after 4 weeks, injured side
Experimental: as §1
Malondialdehyde (MDA) is a commonly used indicator of membrane lipid peroxidation, reduced glutathione (GSH) is one of the most commonly used non-enzymatic indicators of antioxidant substances, and superoxide dismutase (SOD) is a common indicator of antioxidant enzymes. After completing the evaluation of motor function after 4 weeks of drug administration, the mice were deeply anesthetized and perfused with 20 mL of saline via the heart. The brain was rapidly severed to isolate the striatal region on the injured side (right side), weighed, and placed into a 1.5 mL EP tube, and homogenized at low temperature by adding phosphate-buffered saline (PBS) at the ratio of a weight of animal tissues (g) to a volume of homogenization medium (mL) of 1:9. […]

Which results are given for COc1cc(OC)c(OC)cc1C=C1CCC1 [CTMB, 1-(cyclobutylidenemethyl)-2,4,5-trimethoxybenzene]?
Incubation period (s), Clonic seizure ([1]; CTMB-H 100 mg/kg ip): 1549.9 ± 537.1 s; Incubation period (s), Tonic seizure ([1]; CTMB-H 100 mg/kg ip): 1800.0 ± 0.0 s; Seizure grade ([1]; CTMB-H 100 mg/kg ip): 0.2 ± 0.4; seizure rate, Clonic seizure ([1]; CTMB-H 100 mg/kg ip): 20%***; seizure rate, Tonic seizure ([1]; CTMB-H 100 mg/kg ip): 0%***; Incubation period (s), Clonic seizure ([1]; CTMB-L 50 mg/kg ip): 588.9 ± 657.6 s; Incubation period (s), Tonic seizure ([1]; CTMB-L 50 mg/kg ip): 1000.8 ± 700.7 s; Seizure grade ([1]; CTMB-L 50 mg/kg ip): 4.1 ± 1.5; seizure rate, Clonic seizure ([1]; CTMB-L 50 mg/kg ip): 90%; seizure rate, Tonic seizure ([1]; CTMB-L 50 mg/kg ip): 70%; Incubation period (s), Tonic seizure ([1]; CTMB-M 75 mg/kg ip): 1553.5 ± 400.4 s; Seizure grade ([1]; CTMB-M 75 mg/kg ip): 1.8 ± 1.3; seizure rate, Clonic seizure ([1]; CTMB-M 75 mg/kg ip): 50%*; seizure rate, Tonic seizure ([1]; CTMB-M 75 mg/kg ip): 30%**; GLT-1 content in brain [2]: reduces the GLT-1 content; ratio of GLT-1 and GABA [2]: significantly reduces the ratio of GLT-1 and GABA; degree of pathological damage to the substantia nigra region and striatum [3]: reduced; MDA [4]: 2.04 ± 0.57 μmol/g protein
